The molecules below were run on efflux pump (assay: efflux pump substrate activity).
Assay type: in vitro ADME
Text: For the treatment of certain diseases, it may be beneficial to have a therapeutic agent that is not an efflux pump substrate. […] In one embodiment of the invention R^2 is (C1-C15)alkyl or (C2-C15) alkenyl. In one embodiment of the invention R^4 is (C1-C15)alkyl or (C2-C15)alkenyl. In one embodiment of the invention R^4 is (C1-C6)alkyl.

Row | Compound | efflux pump substrate
1 | COc1cc(/C=C/c2cc(OC)c3cc[nH]c3c2)cc2c1O[C@]1(C)CC[C@@H](O)C(C)(C)[C@H]1C2 [Compound 4, reference compound] | found to be an efflux pump substrate
2 | COc1cc(/C=C/c2cc(O)c3ccn(C)c3c2)cc2c1O[C@]1(C)CC[C@@H](O)C(C)(C)[C@H]1C2 [Compound 7] | diminished activity as efflux pump substrates compared to Compound 4
3 | COc1cc(/C=C/c2cc(O)c3c(c2)C[C@@H]2C(C)(C)[C@H](O)CC[C@@]2(C)O3)cc2c1ccn2C [Compound 9] | diminished activity as efflux pump substrates compared to Compound 4
4 | COc1cc(/C=C/c2cc(O)c3c(CC=C(C)C)c[nH]c3c2)cc2c1O[C@]1(C)CC[C@@H](O)C(C)(C)[C@H]1C2 [Compound 10] | diminished activity as efflux pump substrates compared to Compound 4
